Test results from patent US20100267653A1, “USE OF COUMARIN DERIVATIVES IN ANTIFUNGAL THERAPY” (priority 2006, published 2010).
In brackets after ≈: the same amount, converted by molar mass. Where two headings read alike, the source gives them in different places.

Legend:
[1] = tested on: Trichophyton rubrum NCPF118; assay: Antifungal activity, growth in RPMI 1640 microtitre plates (OD 530 nm); assay type: cell-based; details: for MIC: T. rubrum NCPF118, 30° C.
Description: (§1) Esculin, esculetin and a range of other coumarins and their glycosides were tested for their antifungal activity against Trichophyton rubrum, Trichophyton interdigitale and other fungi isolated from nails and skin.
(§2) Suspensions of fungal conidia and hyphal fragments for use as experimental inocula were prepared by adding 3 ml of demineralised water or 0.15% (w/v) NaCl solution to a slope culture which had been incubated at 30° C. for 7 to 10 days and probing the surface of the culture with a sterile plastic transfer pipette. […] The resulting suspension was filtered through a double layer of sterile surgical gauze; if necessary a further volume of up to 3 ml of water or 0.15% (w/v) NaCl was used to wash through any spores or small hyphal fragments held on the gauze. 100 μl of this suspension, adjusted to an optical density between 0.14 and 0.16 at 530 nm (corresponding to between 0.5 and 1.5×10^6 propagules/ml) was added to the wells in sterile 96-well microtitre plates to which 100 μl of 2× strength RPMI 1640 media (a chemically-defined nutrient medium widely used in tissue culture and antimicrobial resistance testing) had been added. Inocula prepared in this way were used in all of the experiments; additionally, for some experiments with esculin shown in FIG. 4, the results obtained with standard inocula prepared as described above (labelled “young inoculum” in FIG. 4), were compared with the results obtained in similar tests using inocula which had been cultured for up to 9 weeks (labelled “old inoculum” in FIG. 4). As appropriate, coumarins were pre-dissolved in 2× strength RPMI 1640 medium before addition to the plate. Experiments with the yeasts Candida albicans and Candida krusei were set up in the same way, but in these cases, filtration of the cell suspensions was not necessary.
(§3) Solubilisation of other compounds required the presence of DMSO. Esculetin, daphnetin, 4-(trifluoromethyl) coumarin, 4-(trifluoromethyl)-coumarin-7-0-glucose and cichoriin were dissolved in DMSO at 1000× final test concentration; when this solution was diluted to the concentration used in the experiments using 2× strength RPMI 1640 medium, the final concentration of DMSO was […] which alone had no effect on the fungi when tested in several experiments performed. Fraxetin required a final concentration of 0.2% DMSO, but this too had no effect on the growth of the fungi when tested in separate experiments.
(§4) A series of dilutions of the coumarin solutions was prepared on the plates by mixing known volumes of the coumarin stock solutions in the wells with fresh volumes of 2×RPMI 1640 medium. Each concentration of coumarin was studied in triplicate wells. For observations on Trichophyton rubrum NCPF118 and Trichophyton interdigitale NCPF335, obtained from the National Collection of Pathogenic Fungi (Bristol), the plates were incubated in a Bio-Tek Powerwave XS scanning plate reader at 30° C., and fungal growth within the plates was measured at intervals of 2 h for up to 72 h or 96 h as specified in the text by recording the absorbance (optical density) of the wells at 530 nm. Observations on Candida albicans and Candida krusei were made in the same way, but the incubation temperature was 37° C. and the incubation time was 48 h. For observations with clinical fungal isolates obtained from the collection of M. Monod (Lausanne, Switzerland), the procedure was as described above except that in response to the relatively slow growth of these isolates, incubations were performed in a static incubator at 30° C. and the plates were read manually in a Bio-Tek Powerwave XS scanning plate reader at intervals of 24 h for up to 168 h, being returned to the incubator after each reading. Malassezia furfur grows poorly in the system described above, so for this organism, a standard inoculum of M. furfur was mixed with an equal volume of a solution of esculetin and the mixture was plated onto Petri dishes containing Sabouraud's agar medium. […]

[2] = tested on: Trichophyton interdigitale NCPF335; assay: as above; assay type: cell-based; details: Trichophyton interdigitale; T. interdigitale NCPF335, 30° C.
Description: as §1, §2, §3, §4

[3] = Solubility of coumarins in RPMI 1640 media and DMSO; assay type: physicochemical; details: for solubility: aqueous buffer, kinetic from dmso stock, pH = 7.0, in presence of the DMSO concentration of the same table line
Description: The solubility of the aglycones was compared to the respective glycoside in RPMI 1640 media and in DMSO.
as §3

T. mentagrophytes = assay: Sensitivity of clinical isolates of dermatophytes to esculetin; assay type: cell-based, Trichophyton mentagrophytes; set-up: key to Sensitive (S) or Resistant (R): Sensitive (S); Resistant (R); details: 27 strains tested
Description: as §1
(§5) Suspensions of fungal conidia and hyphal fragments for use as experimental inocula were prepared by adding 3 ml of demineralised water or 0.15% (w/v) NaCl solution to a slope culture which had been incubated at 30° C. for 7 to 10 days and probing the surface of the culture with a sterile plastic transfer pipette. […] The resulting suspension was filtered through a double layer of sterile surgical gauze; if necessary a further volume of up to 3 ml of water or 0.15% (w/v) NaCl was used to wash through any spores or small hyphal fragments held on the gauze. […]
(§6) A series of dilutions of the coumarin solutions was prepared on the plates by mixing known volumes of the coumarin stock solutions in the wells with fresh volumes of 2×RPMI 1640 medium. […] For observations on Trichophyton rubrum NCPF118 and Trichophyton interdigitale NCPF335, obtained from the National Collection of Pathogenic Fungi (Bristol), the plates were incubated in a Bio-Tek Powerwave XS scanning plate reader at 30° C., and fungal growth within the plates was measured at intervals of 2 h for up to 72 h or 96 h as specified in the text by recording the absorbance (optical density) of the wells at 530 nm. […]

[4] = tested on: Candida albicans, Cryptococcus neoformans, Saccharomyces cerevisiae and Aspergillus niger; details: Sardari et al, Bioorg. Med. Chem. 7, 1999; cited from earlier work
Alternaria spp. = assay: Sensitivity of other fungal isolates of pathogenic fungi to esculetin; assay type: cell-based; set-up: key to Sensitive (S) or Resistant (R): Sensitive (S); Resistant (R); details: 1 strain tested
Description: as §1, §2, §3, §4

[5] = tested on: Scopulariopsis brevicaulis; assay: as above; assay type: cell-based; set-up: key to Sensitive (S) or Resistant (R): Sensitive (S); Resistant (R); details: 4 strains tested
Description: as §1, §2, §3, §4

Fusarium spp. = assay: as above; assay type: cell-based; set-up: key to Sensitive (S) or Resistant (R): Sensitive (S); Resistant (R); details: 15 strains tested
Description: as §1, §2, §3, §4

Curvularia spp. = assay: as above; assay type: cell-based; set-up: key to Sensitive (S) or Resistant (R): Sensitive (S); Resistant (R); details: 1 strain tested
Description: as §1, §2, §3, §4

Aspergillus fumigatus = assay: as above; assay type: cell-based; set-up: key to Sensitive (S) or Resistant (R): Sensitive (S); Resistant (R); details: 1 strain tested
Description: as §1, §2, §3, §4

[6] = tested on: T. mentagrophytes var interdigitale strain 386; assay: Sensitivity of clinical isolates of dermatophytes to esculetin; assay type: cell-based, Trichophyton mentagrophytes var. interdigitale; set-up: key to Sensitive (S) or Resistant (R): Sensitive (S); Resistant (R); details: strain 386, 1 strain tested
Description: as §1, §5, §6

T. rubrum strain 1072 = assay: as above; assay type: cell-based, Trichophyton rubrum; set-up: key to Sensitive (S) or Resistant (R): Sensitive (S); Resistant (R); details: T. rubrum strain 1072, 3 tested
Description: as §1, §5, §6

T. tonsurans = assay: as above; assay type: cell-based, Trichophyton tonsurans; set-up: key to Sensitive (S) or Resistant (R): Sensitive (S); Resistant (R); details: 2 strains tested
Description: as §1, §5, §6

T. soudanense = assay: as above; assay type: cell-based, Trichophyton soudanense; set-up: key to Sensitive (S) or Resistant (R): Sensitive (S); Resistant (R); details: 2 strains tested
Description: as §1, §5, §6

Trichophyton rubrum = assay: as above; assay type: cell-based; set-up: key to Sensitive (S) or Resistant (R): Sensitive (S); Resistant (R); details: 48 strains tested
Description: as §1
(§7) Suspensions of fungal conidia and hyphal fragments for use as experimental inocula were prepared by adding 3 ml of demineralised water or 0.15% (w/v) NaCl solution to a slope culture which had been incubated at 30° C. for 7 to 10 days and probing the surface of the culture with a sterile plastic transfer pipette. […] The resulting suspension was filtered through a double layer of sterile surgical gauze; if necessary a further volume of up to 3 ml of water or 0.15% (w/v) NaCl was used to wash through any spores or small hyphal fragments held on the gauze. 100 μl of this suspension, adjusted to an optical density between 0.14 and 0.16 at 530 nm (corresponding to between 0.5 and 1.5×10^6 propagules/ml) was added to the wells in sterile 96-well microtitre plates to which 100 μl of 2× strength RPMI 1640 media (a chemically-defined nutrient medium widely used in tissue culture and antimicrobial resistance testing) had been added. Inocula prepared in this way were used in all of the experiments; additionally, for some experiments with esculin shown in FIG. 4, the results obtained with standard inocula prepared as described above (labelled “young inoculum” in FIG. 4), were compared with the results obtained in similar tests using inocula which had been cultured for up to 9 weeks (labelled “old inoculum” in FIG. 4). As appropriate, coumarins were pre-dissolved in 2× strength RPMI 1640 medium before addition to the plate. […]
as §4, with “Each concentration of coumarin was studied in triplicate wells.” left out, “Observations on Candida albicans and Candida krusei were made in the same way, but the incubation temperature was 37° C. and the incubation time was 48 h.” left out, “reading.” for “reading. Malassezia furfur grows poorly in the system described above, so for this organism, a standard inoculum of M. furfur was mixed with an equal volume of a solution of esculetin and the mixture was plated onto Petri dishes containing Sabouraud's agar medium.”

Microsporum canis = assay: as above; assay type: cell-based; set-up: key to Sensitive (S) or Resistant (R): Sensitive (S); Resistant (R); details: 4 strains tested
Description: as §1, §7
as §4, with “Each concentration of coumarin was studied in triplicate wells.” left out, “Observations on Candida albicans and Candida krusei were made in the same way, but the incubation temperature was 37° C. and the incubation time was 48 h.” left out, “reading.” for “reading. Malassezia furfur grows poorly in the system described above, so for this organism, a standard inoculum of M. furfur was mixed with an equal volume of a solution of esculetin and the mixture was plated onto Petri dishes containing Sabouraud's agar medium.”

M. gypseum = assay: as above; assay type: cell-based, Microsporum gypseum; set-up: key to Sensitive (S) or Resistant (R): Sensitive (S); Resistant (R); details: clinical isolate, 1 strain tested
Description: as §1, §5, §6

In the case of `COc1cc2ccc(=O)oc2c(O)c1O` [Fraxetin, 7,8 dihydroxy-6-methoxycoumarin], the MIC ([1]; Trichophyton rubrum, read-out: MIC) is reported as 250 µM (≈ 52 µg/mL), the MIC [2] is reported as 500 µM (≈ 104 µg/mL) and the “DMSO Concentration” value ([3]; DMSO present for the stated solubility in RPMI 1640) is reported as 0.4 % v/v. For the same compound, the solubility [3] was 5000 µM.
With `O=c1cc(C(F)(F)F)c2ccc(OC3O[C@H](CO)[C@@H](O)[C@H](O)[C@H]3O)cc2o1` (stereo partly drawn) [4-(trifluoromethyl)coumarin-7-glucoside] the “DMSO Concentration” value ([3]; pH 7) was 0 % v/v.
Compound `Cc1cc(=O)oc2cc(O)c(O)cc12` [4 methyl esculetin] has an MIC [1] of 1000 µM (≈ 192 µg/mL).
For `O=c1ccc2cc(O)c(O)cc2o1` [Esculetin, 6,7 dihydroxycoumarin], the “antifungal effect versus T. rubrum NCPF118” value ([1]; FIG. 3) was “dose-dependent antifungal effect”, the “MIC esculetin, range in mM” value (T. mentagrophytes) was 1.1 ± 0.5 mM (≈ 196 µg/mL) and the “Sensitive (S) or Resistant (R)” value (T. mentagrophytes) was “S”. For the same compound, the “antifungal activity against the fungi tested” value [4] was “minimal antifungal activity”, the “Sensitive (S) or Resistant (R)” value (Alternaria spp.) was “S” and the MIC (Alternaria spp.; Alternaria) was 1000 µM (≈ 178 µg/mL). For the same compound, the “Sensitive (S) or Resistant (R)” value [5] was “R”, the MIC ([5]; Scopulariopsis brevicaulis) was ≥ 2000 µM and the “Sensitive (S) or Resistant (R)” value (Fusarium spp.) was “R”. For the same compound, the MIC (Fusarium spp.; Fusarium) was ≥ 2000 µM, the “Sensitive (S) or Resistant (R)” value (Curvularia spp.) was “R” and the MIC (Curvularia spp.; Curvularia) was ≥ 2000 µM. For the same compound, the “Sensitive (S) or Resistant (R)” value (Aspergillus fumigatus) was “R”, the MIC (Aspergillus fumigatus; Aspergillus fumigatus) was ≥ 2000 µM and the solubility ([3]; RPMI 1640 medium with DMSO co-solvent) was 5000 µM. For the same compound, the “DMSO Concentration” value ([3]; pH 7) was 0.1 % v/v, the “MIC esculetin, range in mM” value [6] was “≧2 mM” and the “Sensitive (S) or Resistant (R)” value [6] was “R”. For the same compound, the “MIC esculetin, range in mM” value (T. rubrum strain 1072) was “≧2 mM”, the “Sensitive (S) or Resistant (R)” value (T. rubrum strain 1072) was “R” and the “MIC esculetin, range in mM” value (T. tonsurans) was 0.25 ± 0.18 mM (≈ 44.5 µg/mL). The “Sensitive (S) or Resistant (R)” value (T. tonsurans) was “S”, the “MIC esculetin, range in mM” value (T. soudanense) was 0.31 ± 0.27 mM (≈ 55.2 µg/mL) and the “Sensitive (S) or Resistant (R)” value (T. soudanense) was “S”. The “MIC esculetin, range in mM” value (Trichophyton rubrum) was 0.54 ± 0.37 mM (≈ 96.2 µg/mL), the “Sensitive (S) or Resistant (R)” value (Trichophyton rubrum) was “S” and the “MIC esculetin, range in mM” value (Microsporum canis) was 1.0 ± 0.58 mM (≈ 178 µg/mL). The “Sensitive (S) or Resistant (R)” value (Microsporum canis) was “S”, the “MIC esculetin, range in mM” value (M. gypseum) was “≧2 mM” and the “Sensitive (S) or Resistant (R)” value (M. gypseum) was “R”.
